# Laboratory results taken from patent US20070203091A1, “Methods and therapeutic compositions for improving liver, blood flow and skeletal muscle functions in advanced diseases and aging” (priority 2006, published 2007).
# “Also recorded” adds a separate entry of the source. Where two headings read alike, the source gives them in different places.
# Experiments:
# [1] = Laboratory parameters, chemistry: LDH, bilirubin, SGOT, SGPT, Phase I study; type: in vivo, human
# Source text: Serum LDH levels are an established strong independent negative prognostic factor, inversely related to survival in a great variety of adverse clinical conditions. In advanced refractory cancers, high LDH and low Karnofsky's performance status are among the strongest established independent negative prognostic factors of survival and quality of life (29).
# [2] = ATP pharmacokinetics: initial ATP release rate from red blood cells into blood plasma, Phase I study; type: in vivo, human
# Protocol: The solution was administered by continuous intravenous infusions using an Ivac or similar infusion device through venous access in a peripheral vein. If venous access was a problem, either a Hickman catheter or its equivalent, or an Infusaport or its equivalent was inserted to provide vascular access.
# The 50 μg/kg/min dose could be reduced to 25 μg/kg/min if adverse effects occurred. […] Succeeding infusions in that patient were at the infusion dose tolerated at the end of the previous treatment. If adverse events occurred in patients being infused at 25 μg/kg/min, the infusions were terminated and the patient received no additional infusions.
# [3] = cited from earlier work
# [4] = cited from earlier work; remark: listed apart in the source
# [5] = patients 502-505, week 1 (pre-dose) to week 13 (follow-up)
# [6] = ATP infusion rate 500-1000 μg/kg/min
# [7] = ATP infusion rate ≦100 μg/kg/min
compound,measurement,setting,value
"Nc1ncnc2c1ncn2[C@@H]1O[C@H](COP(=O)(O)OP(=O)(O)OP(=O)(O)O)[C@@H](O)[C@H]1O [ATP, adenosine 5′-triphosphate]","LDH, Observed Values, Median","[1]; Week 13 (Follow-up), N=5",158.0 U/L
same,"Phosphorus, Change from Baseline, Mean","[1]; Week 13 (Follow-up), N=5",-0.0 mg/dL
same,"Phosphorus, Change from Baseline, Median","[1]; Week 13 (Follow-up), N=5",0.2 mg/dL
same,"Phosphorus, Observed Values, Mean","[1]; Week 13 (Follow-up), N=5",3.2 mg/dL
same,"Phosphorus, Observed Values, Median","[1]; Week 13 (Follow-up), N=5",3.2 mg/dL
same,"Total Bilirubin, Change from Baseline, Mean","[1]; Week 13 (Follow-up), N=6",0.1 mg/dL
same,"Total Bilirubin, Change from Baseline, Median","[1]; Week 13 (Follow-up), N=6",0.1 mg/dL
same,"Total Bilirubin, Observed Values, Mean","[1]; Week 13 (Follow-up), N=6",0.4 mg/dL
same,"Total Bilirubin, Observed Values, Median","[1]; Week 13 (Follow-up), N=6",0.4 mg/dL
same,SGOT (serum glutamate oxaloacetate transaminase),[1]; [5],Consistent decreases
same,SGPT (serum glutamate pyruvate transaminase),[1]; [5],Consistent decreases
same,serum LDH (lactate dehydrogenase),[1]; [5],Consistent decreases
same,serum levels of bilirubin,[1]; week 13 of treatment,remained stable
same,serum levels of lactate dehydrogenase (LDH),[1]; week 13 of treatment,dropped
same,Initial ATP Release Rates Mean,"[2]; Week 1 (infusion 1), 4 hours into infusion",33.407 nM/min
same,Initial ATP Release Rates Mean,"[2]; Week 1 (infusion 1), 8 hours (before the end)",47.224 nM/min
same,Initial ATP Release Rates Mean,"[2]; Week 1 (infusion 1), 8.25 hours",10.400 nM/min
same,Initial ATP Release Rates Mean,"[2]; Week 1 (infusion 1), 9 hours",25.408 nM/min
same,Initial ATP Release Rates Mean,"[2]; Week 1 (infusion 1), 10 hours",13.959 nM/min
same,Initial ATP Release Rates Mean,"[2]; Week 1 (infusion 1), 11 hours",14.743 nM/min
same,Initial ATP Release Rates Mean,"[2]; Week 1 (infusion 1), 12 hours",12.565 nM/min
same,Initial ATP Release Rates Mean,"[2]; Week 1 (infusion 1), 14 hours",12.067 nM/min
same,Initial ATP Release Rates Mean,"[2]; Week 1 (infusion 1), 16 hours",15.331 nM/min
same,Initial ATP Release Rates Mean,"[2]; Week 1 (infusion 1), 20 hours",20.063 nM/min
same,Initial ATP Release Rates Mean,"[2]; Week 1 (infusion 1), 24 hours",17.452 nM/min
same,Initial ATP Release Rates Mean,"[2]; Week 1 (infusion 1), Time 0 (pre-infusion)",15.469 nM/min
same,Initial ATP Release Rates Mean,"[2]; Week 1 (infusion 1), […]",41.353 nM/min
same,Initial ATP Release Rates Mean,"[2]; Week 3 (Infusion 3), 4 hours into infusion",55.414 nM/min
same,Initial ATP Release Rates Mean,"[2]; Week 3 (Infusion 3), 8 hours before the end",48.283 nM/min
same,Initial ATP Release Rates Mean,"[2]; Week 3 (Infusion 3), 8.25 hours",13.400 nM/min
same,Initial ATP Release Rates Mean,"[2]; Week 3 (Infusion 3), 9 hours",34.992 nM/min
same,Initial ATP Release Rates Mean,"[2]; Week 3 (Infusion 3), 10 hours",27.342 nM/min
same,Initial ATP Release Rates Mean,"[2]; Week 3 (Infusion 3), 11 hours",18.888 nM/min
same,Initial ATP Release Rates Mean,"[2]; Week 3 (Infusion 3), 12 hours",14.660 nM/min
same,Initial ATP Release Rates Mean,"[2]; Week 3 (Infusion 3), 14 hours",10.390 nM/min
same,Initial ATP Release Rates Mean,"[2]; Week 3 (Infusion 3), 16 hours",10.223 nM/min
same,Initial ATP Release Rates Mean,"[2]; Week 3 (Infusion 3), 20 hours",11.708 nM/min
same,Initial ATP Release Rates Mean,"[2]; Week 3 (Infusion 3), 24 hours",15.880 nM/min
same,Initial ATP Release Rates Mean,"[2]; Week 3 (Infusion 3), Time 0 (pre-infusion)",18.228 nM/min
same,Initial ATP Release Rates Mean,"[2]; Week 3 (Infusion 3), […]",38.780 nM/min
same,Initial ATP Release Rates Mean,"[2]; Week 8 (infusion 8), 4 hours into infusion",28.700 nM/min
same,Initial ATP Release Rates Mean,"[2]; Week 8 (infusion 8), 8 hours (before the end)",27.930 nM/min
same,Initial ATP Release Rates Mean,"[2]; Week 8 (infusion 8), 9 hours",20.167 nM/min
same,Initial ATP Release Rates Mean,"[2]; Week 8 (infusion 8), 10 hours",5.803 nM/min
same,Initial ATP Release Rates Mean,"[2]; Week 8 (infusion 8), 11 hours",15.700 nM/min
same,Initial ATP Release Rates Mean,"[2]; Week 8 (infusion 8), 12 hours",14.150 nM/min
same,Initial ATP Release Rates Mean,"[2]; Week 8 (infusion 8), 14 hours",19.620 nM/min
same,Initial ATP Release Rates Mean,"[2]; Week 8 (infusion 8), 16 hours",11.680 nM/min
same,Initial ATP Release Rates Mean,"[2]; Week 8 (infusion 8), 20 hours",14.520 nM/min
same,Initial ATP Release Rates Mean,"[2]; Week 8 (infusion 8), 24 hours",16.200 nM/min
same,Initial ATP Release Rates Mean,"[2]; Week 8 (infusion 8), Time 0 (pre-infusion)",10.967 nM/min
same,Initial ATP Release Rates Mean,"[2]; Week 8 (infusion 8), […]",11.267 nM/min
same,average increases in Initial ATP Release Rates (from Red Blood Cells),"[2]; patients 502-505, time 0 to 8 hours",200-400%
same,Cardiac Output,[3]; [6],Increase
same,Heart Rate,[3]; [6],Increase
same,Pulmonary Arterial Pressure,[3]; [6],Decrease
same,Pulmonary Vascular Resistance,[3]; [6],Decrease
same,Systemic Arterial Pressure,[3]; [6],Decrease
same,Systemic Vascular Resistance,[3]; [6],Decrease
same,Cardiac Output,[3]; [7],Small Increase
same,Heart Rate,[3]; [7],do not affect; also recorded: No Change
same,Pulmonary Arterial Pressure,[3]; [7],No Change
same,Pulmonary Vascular Resistance,[3]; [7],Decrease
same,Systemic Arterial Pressure,[3]; [7],do not affect; also recorded: No Change
same,Systemic Vascular Resistance,[3]; [7],Small Decrease
same,increase in vascular diameter,[4]; blood plasma ATP about 1 microM,8%
same,increase in blood flow,"[4]; blood plasma ATP about 1 microM, corresponding to the increase in vascular diameter",≥ 17%
same,site of vasodilation,"[4]; intraluminal, physiological concentrations","not only local vasodilation, but also vasodilation at sites upstream from the site of its application"
